Values of other authors in patent US20130203688A1, “SUGAR PLANT DERIVED BY-PRODUCTS AND METHODS OF PRODUCTION THEREOF” (FÉDÉRATION DES PRODUCTEURS ACÉRI-COLES DU QUÉBEC, priority 2010, published 2013).
One block for each compound: values may come before it.

Properties: α-glucosidase-inhibiting action (α-glucosidase): α- glucosidase- inhibiting
Compound: COc1ccc(C2OC(=O)C(O)(Cc3ccc(OC4OC(C)C(O)C(O)C4O)c(OC)c3)C2CO)cc1OC (centres unmarked) [compound 7]
Properties: human HL-60 proliferation-inhibiting action (human HL-60): human HL-60 proliferation- inhibiting

Compound: COc1cc(/C=C/CO)cc(OC)c1O [compound 10, Syringenin]
Properties: TNFα-secretion inhibitor (TNFα secretion): TNFα- secretion inhibitor

Compound: Oc1ccccc1O [compound 11, 1,2-Benzenediol(catechol)]
Properties: antibacterial (bacteria): Antibacterial
Properties: tyrosinase inhibitory (tyrosinase): inhibit the activity of tyrosinase
Properties: inhibit the synthesis of melanin (synthesis of melanin): inhibit the synthesis of melanin

Compound: COc1cc(C2Oc3c(OC)cc(CCCO)cc3C2CO)ccc1O (centres unmarked) [compound 15]
Properties: antitumor (tumor): Antitumor/

Properties: tyrosinase inhibitory (tyrosinase): tyrosinase inhibitory
Compound: COc1cc(C2c3c(cc(OC)c(O)c3OC)CC(CO)C2CO)cc(OC)c1O (centres unmarked) [compound 8, Lyoniresinol]
